{"source": "paper PMC10272112", "about": "(Nature Communications, 2023)", "assay_in_all_cases": "Chemoproteomic competition pulldown assay with iC", "assay_type_in_all_cases": "binding", "key": {"HDAC4": {"target": "T1, HDAC4 (Homo sapiens, UniProt P56524)", "T1 construct": "endogenous in cells; host or cells: cell lysate", "T1 sequence (P56524 whole entry)": "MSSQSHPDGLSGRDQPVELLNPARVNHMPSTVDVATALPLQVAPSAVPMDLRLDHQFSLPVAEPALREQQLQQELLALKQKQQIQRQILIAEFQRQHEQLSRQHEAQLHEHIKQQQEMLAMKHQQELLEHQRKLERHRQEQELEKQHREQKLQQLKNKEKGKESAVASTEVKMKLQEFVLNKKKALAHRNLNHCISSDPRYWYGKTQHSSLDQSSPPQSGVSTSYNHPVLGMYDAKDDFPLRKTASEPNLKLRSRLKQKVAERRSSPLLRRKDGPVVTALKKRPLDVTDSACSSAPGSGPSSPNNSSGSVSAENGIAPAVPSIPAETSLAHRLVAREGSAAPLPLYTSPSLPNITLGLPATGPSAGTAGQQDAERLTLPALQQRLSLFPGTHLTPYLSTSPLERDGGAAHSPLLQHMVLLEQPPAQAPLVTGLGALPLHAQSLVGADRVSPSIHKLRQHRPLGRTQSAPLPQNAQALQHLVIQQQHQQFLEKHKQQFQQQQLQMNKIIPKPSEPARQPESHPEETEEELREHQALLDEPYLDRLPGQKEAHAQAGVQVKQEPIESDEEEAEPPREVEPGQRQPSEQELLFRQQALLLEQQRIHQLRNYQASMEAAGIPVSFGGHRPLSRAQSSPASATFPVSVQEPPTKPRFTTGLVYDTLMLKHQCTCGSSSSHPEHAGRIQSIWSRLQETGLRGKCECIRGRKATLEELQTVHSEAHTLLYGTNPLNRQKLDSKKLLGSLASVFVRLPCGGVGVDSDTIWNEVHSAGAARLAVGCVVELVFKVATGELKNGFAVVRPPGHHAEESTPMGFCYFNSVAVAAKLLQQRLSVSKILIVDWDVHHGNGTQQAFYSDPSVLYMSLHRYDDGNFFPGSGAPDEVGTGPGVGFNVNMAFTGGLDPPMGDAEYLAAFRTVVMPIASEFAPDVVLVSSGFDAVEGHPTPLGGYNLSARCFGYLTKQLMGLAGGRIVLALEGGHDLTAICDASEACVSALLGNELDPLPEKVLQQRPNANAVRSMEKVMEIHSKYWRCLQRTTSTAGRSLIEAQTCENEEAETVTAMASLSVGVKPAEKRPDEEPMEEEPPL", "settings": "for relative binding vs DMSO: iC", "method": "(§1) To identify proteins directly bound by lipoic acid, we employed a chemoproteomic competition assay. Briefly, (R/S)-LA was immobilized on sepharose beads via an amidation reaction to form an affinity matrix (abbreviated as iL; Fig. 1a). This affinity matrix can be incubated with cell lysate to pull down potential LA or LM target proteins and identify these targets via bottom-up proteomics. In a competition assay, free LA or LM were incubated with lysate at different concentrations before pulling down and quantifying target proteins. […] (Fig. 1b, see “Methods” for details). […] The lysate buffer used in this assay contains 1 mM DTT to mimic the intracellular reductive milieu and to reduce lipoic acid and LM. […] Additional competition assays performed in lung adenocarcinoma cell A549 lysate also identified HDAC1, HDAC2, and HDAC6 as targets (Supplementary Fig. 1b). Amongst the three cell lines tested, HDACs were the only confidently identified targets across the 1500–3000 proteins quantified in these assays. […] We validated the results by analogous pulldown competition assays using two other affinity matrices prepared via the immobilization of either the HDAC inhibitor Quisinostat (iQ) and an analog of the class IIa HDAC inhibitor Bürli’s 31[14] (iC)[12]. We have previously shown that these affinity matrices specifically bind to the active sites of HDACs and have used them for HDACi selectivity profiling. Indeed, binding of (R/S)-LA and (R/S)-LM to HDAC1, HDAC2, HDAC3, HDAC6, and, to a lesser extent, HDAC8 was confirmed in these assays (Supplementary Fig. 1c, d). No binding to class IIa HDACs or the recently discovered common HDAC inhibitor off-target MBLAC2 was observed (Supplementary Fig. 1e)[12]. […] This observation might reflect electrostatic repulsion between the HDAC10 active site gate-keeper glutamic acid residues[15],[16] and the terminal carboxylic acid of LA.\n(§2) To assess the degree of protein depletion from lysates by the affinity matrix, a second pulldown (PDPD) with fresh beads was performed using the unbound protein fraction from the vehicle control flow through. The beads were washed (1 × 1 mL of lysis buffer without inhibitors and only 0.4% Igepal, 2 × 2 mL of lysis buffer without inhibitors and only 0.2% Igepal), and captured proteins were denatured with 8 M urea buffer, alkylated with 55 mM chloroacetamide and digested with Trypsin according to standard procedures. The resulting peptides were desalted on a C18 filter plate (Sep-Pak® tC18 µElution Plate, Waters), vacuum dried, and stored at −20 °C until LC–MSMS measurement.\n(§3) For the competition assays, relative binding was calculated based on the protein intensity ratio to the DMSO control for every single inhibitor concentration. EC50 values were derived from a four-parameter log-logistic regression with variable slope (constrain: bottom > 0). The obtained EC50 values were multiplied with a protein-dependent correction factor (cf), resulting in the apparent Kd value (Kd^app). The correction factor is determined by calculating the ratio of the protein intensity of two consecutive pulldowns of the vehicle control sample[13]. Targets of the inhibitors were annotated manually according to published procedures[12],[46],[47]. […] Additionally, the number of unique peptides and MSMS counts per condition were taken into account. Positive target binding across several independent experiments performed with different cell lysates further substantiated our confidence for a true positive drug-target binding event."}, "HDAC7": {"target": "T2, HDAC7 (Homo sapiens, UniProt Q8WUI4)", "T2 construct": "endogenous in cells; host or cells: cell lysate", "T2 sequence (Q8WUI4 1-952)": "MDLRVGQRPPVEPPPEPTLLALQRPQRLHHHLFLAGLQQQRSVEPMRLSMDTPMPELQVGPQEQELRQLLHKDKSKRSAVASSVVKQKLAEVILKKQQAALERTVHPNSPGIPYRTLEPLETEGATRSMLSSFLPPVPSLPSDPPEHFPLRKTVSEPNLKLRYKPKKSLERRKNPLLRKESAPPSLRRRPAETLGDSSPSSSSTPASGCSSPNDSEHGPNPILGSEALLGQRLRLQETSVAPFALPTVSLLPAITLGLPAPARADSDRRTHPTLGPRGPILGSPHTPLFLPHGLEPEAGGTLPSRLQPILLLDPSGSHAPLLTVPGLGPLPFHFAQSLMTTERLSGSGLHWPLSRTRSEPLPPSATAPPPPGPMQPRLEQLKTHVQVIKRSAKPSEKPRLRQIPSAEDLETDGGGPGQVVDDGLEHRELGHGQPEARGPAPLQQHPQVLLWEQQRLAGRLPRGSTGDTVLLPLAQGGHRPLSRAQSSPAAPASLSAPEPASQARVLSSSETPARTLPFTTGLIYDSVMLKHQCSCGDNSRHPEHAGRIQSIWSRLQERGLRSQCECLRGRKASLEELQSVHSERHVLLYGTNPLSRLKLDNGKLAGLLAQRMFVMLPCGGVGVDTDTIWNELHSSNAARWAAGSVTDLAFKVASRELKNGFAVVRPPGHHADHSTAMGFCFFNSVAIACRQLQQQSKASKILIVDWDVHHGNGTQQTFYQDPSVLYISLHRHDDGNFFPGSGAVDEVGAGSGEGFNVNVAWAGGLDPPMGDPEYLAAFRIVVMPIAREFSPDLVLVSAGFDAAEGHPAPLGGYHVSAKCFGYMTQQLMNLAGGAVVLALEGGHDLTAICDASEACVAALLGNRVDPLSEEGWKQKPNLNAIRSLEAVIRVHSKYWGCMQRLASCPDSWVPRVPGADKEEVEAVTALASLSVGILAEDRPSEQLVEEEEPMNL", "method": "as §1, §2, §3"}, "MBLAC2": {"target": "T3, MBLAC2 (Homo sapiens, UniProt Q68D91)", "T3 construct": "endogenous in cells; host or cells: cell lysate", "T3 sequence (Q68D91 1-279)": "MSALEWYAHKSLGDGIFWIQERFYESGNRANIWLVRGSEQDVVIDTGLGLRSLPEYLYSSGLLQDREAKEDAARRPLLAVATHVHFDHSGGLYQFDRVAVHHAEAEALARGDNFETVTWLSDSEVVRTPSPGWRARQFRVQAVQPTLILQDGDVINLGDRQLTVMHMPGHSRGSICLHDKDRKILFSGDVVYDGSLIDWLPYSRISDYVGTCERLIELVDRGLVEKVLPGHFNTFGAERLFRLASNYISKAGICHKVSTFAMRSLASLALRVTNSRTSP", "settings": "for relative binding vs DMSO: iC", "method": "as §1, §2, §3"}}}
{"molecule": "O=C(O)CCCCC1CCSS1", "note": "(racemic) [(R/S)-LA, (R/S)-lipoic acid]", "values": [{"measurement": "binding to class IIa HDACs", "setting": "HDAC4; affinity matrix iC", "value": "No binding"}, {"measurement": "relative binding vs DMSO", "setting": "HDAC4; log10 M -3.52288", "value": 1.609}, {"measurement": "relative binding vs DMSO", "setting": "HDAC4; log10 M -4", "value": 1.464}, {"measurement": "relative binding vs DMSO", "setting": "HDAC4; log10 M -4.52288", "value": 1.531}, {"measurement": "relative binding vs DMSO", "setting": "HDAC4; log10 M -5", "value": 1.518}, {"measurement": "relative binding vs DMSO", "setting": "HDAC4; log10 M -5.52288", "value": 1.32}, {"measurement": "relative binding vs DMSO", "setting": "HDAC4; log10 M -6", "value": 1.575}, {"measurement": "relative binding vs DMSO", "setting": "HDAC4; log10 M -6.52288", "value": 1.649}, {"measurement": "relative binding vs DMSO", "setting": "HDAC4; log10 M -7", "value": 1.276}, {"measurement": "relative binding vs DMSO", "setting": "HDAC7; log10 M -3.52288", "value": 1.458}, {"measurement": "relative binding vs DMSO", "setting": "HDAC7; log10 M -4", "value": 1.397}, {"measurement": "relative binding vs DMSO", "setting": "HDAC7; log10 M -4.52288", "value": 1.757}, {"measurement": "relative binding vs DMSO", "setting": "HDAC7; log10 M -5", "value": 1.642}, {"measurement": "relative binding vs DMSO", "setting": "HDAC7; log10 M -5.52288", "value": 1.564}, {"measurement": "relative binding vs DMSO", "setting": "HDAC7; log10 M -6", "value": 1.746}, {"measurement": "relative binding vs DMSO", "setting": "HDAC7; log10 M -6.52288", "value": 1.164}, {"measurement": "relative binding vs DMSO", "setting": "HDAC7; log10 M -7", "value": 1.455}, {"measurement": "binding to MBLAC2", "setting": "MBLAC2; affinity matrix iC", "value": "No binding"}, {"measurement": "relative binding vs DMSO", "setting": "MBLAC2; log10 M -3.52288", "value": 0.9784}, {"measurement": "relative binding vs DMSO", "setting": "MBLAC2; log10 M -4", "value": 1.054}, {"measurement": "relative binding vs DMSO", "setting": "MBLAC2; log10 M -4.52288", "value": 1.366}, {"measurement": "relative binding vs DMSO", "setting": "MBLAC2; log10 M -5", "value": 1.348}, {"measurement": "relative binding vs DMSO", "setting": "MBLAC2; log10 M -5.52288", "value": 1.098}, {"measurement": "relative binding vs DMSO", "setting": "MBLAC2; log10 M -6", "value": 1.484}, {"measurement": "relative binding vs DMSO", "setting": "MBLAC2; log10 M -6.52288", "value": 0.5203}, {"measurement": "relative binding vs DMSO", "setting": "MBLAC2; log10 M -7", "value": 0.9131}]}
